Source: patent US8937096B2, “Use of benzo-fused heterocyle sulfamide derivatives for the treatment of mania and bipolar disorder” (priority 2005, dated 2015)
“Also recorded” adds a separate entry of the source.

Legend:
[1] = tested on: hippocampal kindled seizures; experiment: Rat Hippocampal Kindling Test (Interruption of Kindled State); assay type: in vivo
Procedure: In the present rapid hippocampal kindling model adult male Sprague-Dawley rats (300-400 g) were surgically implanted with bipolar electrodes placed in the hippocampus. […] One week later, the rats received 2-3 supra-threshold stimulations delivered every 30 min before treatment with test compound, to ensure stability of the behavioral seizure stage and after-discharge duration. Fifteen minutes after the last stimulation, a single dose of vehicle or test compound was administered i.p. (intraperitoneally). After 15 min, each rat was then stimulated every 30 min for 3 to 4 h. After each stimulation, individual seizure scores and after-discharge durations were recorded. The group mean±SEM were calculated for each parameter. Eight rats per dose and a minimum of four doses were used to establish an ED50 value. Efficacy was measured as the ability of a compound to modify the seizure score (severity of spread) and after-discharge duration (ADD; excitability) of the generalized seizures.
Thus, according to the theories presented in current literature (Ghaemi, S. N., Boiman, E. E., and Goodwin, F. K., Soc. of Bio. Psychiatry, (1999), vol. 45, pp 137-144; Stoll, A. L., and Severus, W. E., Harvard Rev. Psychiatry, July/August (1996), Vol. 4, No. 2, pp 77-89) a decrease in seizure score and/or ADD may also be predictive of the ability of a test compound to treat the cycling associated with bipolar disorder.

[2] = Median toxic dose (TD50) / toxic doses of Compound #8 and reference drugs; conditions: Sprague-Dawley, rat, in vivo, ip
dominant rats = experiment: Dominant-Submissive Relations (DSR) assay: Reduction of Dominant Behavior Model (RDBM) of mania; assay type: in vivo, rat
Procedure: (§1) The DSR assay is divided into two models: Reduction of Dominant Behavior Model (RDBM) of mania and Reduction of Submissive Behavior Model (RSBM) of depression. The RDBM, wherein the dominant animals are treated with test compound, is predictive of the ability of the test compound to treat mania. The RSBM, wherein the submissive animals are treated with test compound, is predictive of the ability of the test compound to treat depression.
(§2) Male Sprague Dawley rats (140 to 160 g) from Charles River Laboratories Wilmington, Mass. were used in this assay. Shipments of rats were received at two-week intervals. Each shipment went through five-day quarantine, one-week acclimation period, and one-week selection process, followed by five-weeks of drug or vehicle treatment to those pairs selected.
(§3) Rats were housed four per cage. Access to food was restricted to one hour per day after testing on Monday through Thursday. After testing on Friday, rats had free access to food until being fasted again on Sunday. At no time were the rats deprived of water. The food deprivation periods used had little effect on weight gain as the average weight of rats was about 300 g at the end of the study. At the conclusion of experiment rats were sacrificed by decapitation, the trunk blood and brains were collected for in vitro experiments and drug concentration measurements.
(§4) The basic testing apparatus consisted of two chambers connected with a tunnel only large enough to allow one rat to pass through at a time. On the floor, at the mid-point of the tunnel was a container of sweetened milk. This basic apparatus was replicated, so that a total of four pairs of rats can be video tracked simultaneously. The camera can distinguish rats marked by different colors. Thus, the rats' heads were colored for the purpose of video tracking, red in one cage and yellow in the other cage. Only one animal at a time can have comfortable access to the feeder, but both animals can drink milk during the five-minute daily session. During the five-minute daily sessions, time spent in the feeder zone by each rat was recorded by the video tracking software and saved into a text file.
The test began with a random assignment of rats into pairs. Each member of a pair was placed in an opposite chamber of the testing apparatus. The time spent in the feeder zone by each animal was recorded. During the first week (five days) of testing the animals habituate to the new environment. Dominance was assigned to the animal with the highest score during the second week of testing if three criteria were achieved. First, there must have been a significant difference (two-tailed t-test, P<0.05) between the average daily drinking scores of both animals. Second, the dominant animal score must have been at least 25% greater than the submissive animal's score. Finally, there must have been no “reversals” during the pair selection week where the putative submissive rat out-scored its dominant partner on isolated occasions. Ideally there were minimal reversals during the acclimation week as well. About twenty-five to thirty-three percent of the initial animal pairs achieved these criteria and only these pairs were continued in the study.
(§5) Significant differences between time spent on the feeder by dominant and submissive rats were determined by ANOVA using GraphPad Prism software (GraphPad Software, Inc. San Diego, Calif.) followed by a two-tailed t-test (P<0.05). Comparisons were made between treatment groups using normalized dominance level values in paired animals. The dominance level is a value that measures social relation between paired subjects. Dominance level (DL)=FTD−FTS where FTD is the feeder time of dominant rats and FTS is the feeder time of submissive rats. The normalization was conducted according to the formula: Dominance Level(week n in %)=(Dominance Level(week n))/(Dominance Level(week 2) […]

submissive rats = experiment: Dominant-Submissive Relations (DSR) assay: Reduction of Submissive Behavior Model (RSBM) of depression; assay type: in vivo, rat
Procedure: as §1, §2, §3, §4
The test began with a random assignment of rats into pairs. Each member of a pair was placed in an opposite chamber of the testing apparatus. The time spent in the feeder zone by each animal was recorded. During the first week (five days) of testing the animals habituate to the new environment. Dominance was assigned to the animal with the highest score during the second week of testing if three criteria were achieved. First, there must have been a significant difference (two-tailed t-test, P<0.05) between the average daily drinking scores of both animals. Second, the dominant animal score must have been at least 25% greater than the submissive animal's score. Finally, there must have been no “reversals” during the pair selection week where the putative submissive rat out-scored its dominant partner on isolated occasions. Ideally there were minimal reversals during the acclimation week as well. About twenty-five to thirty-three percent of the initial animal pairs achieved these criteria and only these pairs were continued in the study. […]
as §5

## NS(=O)(=O)NC[C@H]1COc2cc(Cl)ccc2O1 [Compound #8, (2S)-(−)-N-(6-Chloro-2,3-dihydro-benzo[1,4]dioxin-2-ylmethyl)-sulfamide]
[1]; after treatment i.p.
  rats with significant reduction in global seizure activity (score <3): 6 out of 8
[1]; i.p., p=0.0003
  rats with seizure scores significantly reduced from 5 to 1: 4 out of 8
[1]; i.p., p=0.07
  effect on the ADD (after-discharge duration): no statistically significant effect
[2]
  TD50: ~100 mg/kg
Dominant rats; 0.05 mg/kg and 0.5 mg/kg, non-linear regression fit of normalized daily DL values
  AOT50 compared with lithium: significantly shorter from that of lithium
Dominant rats; 0.05 mg/kg p.o. QD
  first day of consistent lack of statistical significance between feeder time of dominant and submissive rats (activity onset time): 3 days
Dominant rats; 0.5 mg/kg p.o. QD
  first day of consistent lack of statistical significance between feeder time of dominant and submissive rats (activity onset time): 4 days
Dominant rats; 0.5 mg/kg p.o. QD, 5 weeks, strongest effect
  dominance level (DL) values vs vehicle: significant difference in dominance level (DL) values between vehicle and compound treated rats starting in the second week
Dominant rats; 2.5 mg/kg p.o. QD
  first day of consistent lack of statistical significance between feeder time of dominant and submissive rats (activity onset time): 10 days
Dominant rats; 2.5 mg/kg, 5.0 mg/kg and 50.0 mg/kg p.o., compared with 0.5 mg/kg dose (not significantly different)
  dominance level (DL) response: weaker response
Dominant rats; 5.0 mg/kg p.o. QD
  first day of consistent lack of statistical significance between feeder time of dominant and submissive rats (activity onset time): 11 days
Dominant rats; 50.0 mg/kg p.o. QD
  first day of consistent lack of statistical significance between feeder time of dominant and submissive rats (activity onset time): 3 days
Dominant rats; Rattus norvegicus, po, p.o. QD, calculated
  ED50: 0.03 ± 0.004 mg/kg
Dominant rats; dominant rats treated p.o. QD at 0.05 mg/kg, 0.5 mg/kg and 50.0 mg/kg
  difference between dominant and submissive rats lost: lost after the first week of treatment
Dominant rats; dominant rats treated p.o. QD at 2.5 mg/kg and 5.0 mg/kg
  difference between dominant and submissive rats lost: after the second week of treatment
Dominant rats; overall result of the assay
  dominant behavior: reduced dominant behavior
Dominant rats; p.o. QD, calculated
  Emax in the RDBM: 116.4±2.3%
Dominant rats; treated dominant rats permitted submissive partners to increase time on the feeder
  permissiveness of the treated dominant rats: observed to increase
Submissive rats; 2.5 mg/kg and 120.0 mg/kg p.o.
  loss of significance between dominant and submissive rats feeder time: no consistent loss of significance
Submissive rats; 2.5 mg/kg p.o.
  Activity Onset Time at the 50% effect (AOT50): 2.1 days
  Dominance Level (DL) values vs control: did not significantly differ from control
  maximum of the effect (non-linear regression), ± SEM: 52.4±32.7%
Submissive rats; 12 mg/kg p.o.
  Activity Onset Time at the 50% effect (AOT50): 5.3 days
  maximum of the effect (non-linear regression), ± SEM: 87.9±42.6%
Submissive rats; 12.0 mg/kg p.o.
  Dominance Level (DL) values vs control: significantly different from vehicle treated controls after the second, fourth and fifth week of treatment
  first day of consistent lack of statistical significance between feeder time of dominant and submissive rats (activity onset time): 6 days
Submissive rats; 60 mg/kg p.o.
  Activity Onset Time at the 50% effect (AOT50): 1.6 days
  Dominance Level (DL) values vs control: significant difference in DL values relative to vehicle starting at the first week and continuing through the treatment duration of 5 weeks
  first day of consistent lack of statistical significance between feeder time of dominant and submissive rats (activity onset time): 4 days
  maximum of the effect (non-linear regression), ± SEM: 116.9±29.5%
Submissive rats; 120 mg/kg p.o., significance dissipated after the second week
  Dominance Level (DL) values vs control: significantly different from the control group after first week
Submissive rats; fluoxetine 10 mg/kg i.p., Compound #8 treated groups p.o.
  submissiveness during first week of treatment: did not show this effect
Submissive rats; p.o. once a day for 5 weeks, 2.5-120 mg/kg
  submissive behavior: reduce submissive behavior in a dose-dependent manner; also recorded: reduced submissive behavior
Submissive rats; p.o., calculated
  Emax in the RSBM: 131.4±4.7%
Submissive rats; submissive rats treated p.o., all doses used (2.5, 12, 60, 120 mg/kg)
  significant difference between dominant and submissive rats lost: lost after the first week of treatment
